Assay [1] addresses T1, HDAC1 (Homo sapiens, UniProt Q13547). The assay can be described thus: biochemical. Also noted: HDAC inhibition assay, IC50. The conditions noted are these: read-out: HDAC inhibition (HDAC1).
Assay [2] concerns the target T2, HDAC3 (Homo sapiens, UniProt O15379). The assay can be described thus: biochemical. Conditions: read-out: HDAC inhibition (HDAC3). On the set-up: HDAC inhibition assay, IC50.
Assay [3] deals with T1, HDAC1. The experiment in a line: HDAC1 inhibition assay (details not given). It is filed as biochemical.
The target of assay [4] is T2, HDAC3. The experiment in a line: HDAC3 inhibition assay (details not given). It is filed as biochemical.

Molecules are shown by their SMILES.

T2 sequence (O15379 whole entry): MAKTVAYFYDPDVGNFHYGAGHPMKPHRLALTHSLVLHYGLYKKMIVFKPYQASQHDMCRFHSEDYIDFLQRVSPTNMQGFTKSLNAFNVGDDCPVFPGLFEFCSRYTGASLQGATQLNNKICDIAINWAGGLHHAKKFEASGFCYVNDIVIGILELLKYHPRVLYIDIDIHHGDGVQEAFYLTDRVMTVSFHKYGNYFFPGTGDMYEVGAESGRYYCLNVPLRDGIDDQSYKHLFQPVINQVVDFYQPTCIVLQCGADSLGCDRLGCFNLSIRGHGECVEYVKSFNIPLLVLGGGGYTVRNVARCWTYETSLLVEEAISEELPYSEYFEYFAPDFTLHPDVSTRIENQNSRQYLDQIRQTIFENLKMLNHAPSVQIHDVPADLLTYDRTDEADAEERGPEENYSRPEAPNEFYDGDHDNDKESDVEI
T1 sequence (Q13547 whole entry): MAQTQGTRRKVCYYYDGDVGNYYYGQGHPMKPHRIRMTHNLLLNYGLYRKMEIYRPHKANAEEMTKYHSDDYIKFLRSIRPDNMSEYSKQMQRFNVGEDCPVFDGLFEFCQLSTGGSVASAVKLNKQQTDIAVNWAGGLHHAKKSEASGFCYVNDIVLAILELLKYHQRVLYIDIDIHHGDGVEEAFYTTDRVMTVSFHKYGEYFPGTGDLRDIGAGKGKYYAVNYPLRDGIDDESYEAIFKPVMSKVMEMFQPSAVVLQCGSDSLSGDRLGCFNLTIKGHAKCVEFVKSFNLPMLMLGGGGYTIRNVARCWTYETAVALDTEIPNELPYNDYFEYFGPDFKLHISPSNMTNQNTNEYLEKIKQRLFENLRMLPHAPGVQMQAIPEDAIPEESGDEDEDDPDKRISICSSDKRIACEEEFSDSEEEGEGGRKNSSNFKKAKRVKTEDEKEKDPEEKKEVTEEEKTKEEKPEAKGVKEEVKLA

`Cc1ccc(C(=O)Nc2ccccc2O)cc1` [NHPMB]: the IC50 in assay [1] and in assay [2] was 3 µM each time.
Consider `Cc1ccc(C(=O)Nc2ccccc2)cc1` [NPMB], for which the IC50 in assay [1] and in assay [2] was greater than 100 µM throughout.
As for `Nc1ccccc1NC(=O)c1ccccc1` [NAPB], the IC50 in assay [1] came out at 8 µM; in assay [2], 5 µM.
For the molecule `Cc1ccc(C(=O)Nc2ccccc2N)cc1` [#638, DSK638], the values for the IC50 in assay [3] and in assay [4] were roughly 5 µM and roughly 10 µM, respectively.
For the molecule `Cc1ccc(NC(=O)c2ccccc2N)cc1` [NTAB], the IC50 in assay [1] and in assay [2] was greater than 100 µM in each case.

The values above are taken from PMC8837781, “Suppression of tumor metastasis by a RECK-activating small molecule” (Scientific Reports, 2022).
